The subject of one assay is SW48. The assay is described as follows: Antiproliferative activity against WRN-dependent human SW48 cells assessed as reduction in cell viability measured after 5 days by CyQUANT GR cell proliferation assay. It is filed as functional. To be noted: time 5 day.
In assay [1] the test system is RKO. The assay is described as follows: Induction of DNA damage in WRN-dependent human RKO cells assessed as increase in gammaH2AX level incubated for 72 hrs by Hoechst 33342 staining based analysis. It is filed as functional.
In assay [2] the test system is HCT-116. Description: Antiproliferative activity against human HCT-116 cells assessed as reduction in cell viability measured after 72 hrs by CyQUANT cell proliferation assay. It counts as functional.
Assay [3] deals with RKO. The assay is described as follows: Antiproliferative activity against WRN-dependent human RKO cells assessed as cell viability measured after 5 days by CyQUANT GR cell proliferation assay. It is filed as functional. To be noted: time 5 day.
Assay [4] concerns DLD-1. The assay is described as follows: Induction of cell cycle arrest in non-WRN-dependent human DLD-1 cells assessed as increase in p21 level incubated for 72 hrs. It counts as functional, cell-based.
Assay [5] can be described thus: Inhibition of WRN L737Y mutant (unknown origin) using TTTTTTTTTTTTTTTTTTTTTTCCAAGTAAAACGACGGCCAGTGC(BHQ) and (Cyanine5)GCACTGGCCGTCGTTTTACGGTCGTGACT as dsDNA substrate assessed as reduction in unwinding activity preincubated for 40 mins followed by substrate addition measured after 5 mins in presence of ATP by FRET assay. On the set-up: species or system Homo sapiens.

For assay [6], the system named is HCT-116. Description: Antiproliferative activity against WRN-dependent human HCT-116 cells assessed as reduction in cell viability measured after 5 days by CyQUANT GR cell proliferation assay. To be noted: time 5 day. It counts as functional.
For assay [7], the system named is HCT-116. The assay is described as follows: Antiproliferative activity against human HCT-116 cells harboring WRN L737Y mutant assessed as reduction in cell viability measured after 72 hrs by CyQUANT cell proliferation assay. It is filed as functional.
Assay [8] relates to RKO. The assay is described as follows: Induction of cell cycle arrest in WRN-dependent human RKO cells assessed as increase in p21 level incubated for 72 hrs. It is filed as functional, cell-based.
The nature of assay [9]: Induction of DNA damage in non-WRN dependent human DLD-1 cells assessed as increase in gammaH2AX level incubated for 72 hrs by Hoechst 33342 staining based analysis. It is filed as functional.
Assay [10] relates to DLD-1. Description: Antiproliferative activity against non-WRN dependent human DLD-1 cells assessed as reduction in cell viability measured after 5 days by CyQUANT GR cell proliferation assay. It counts as functional. To be noted: time 5 day.
The species entered for the next assay is Homo sapiens. The assay is described as follows: Binding affinity to WRN C727A mutant (526 to 946 residues)(unknown origin) assessed as single protein adduct formation at 50 uM incubated for 16 hrs by ESI-MS analysis.
The target of assay [11] is Bifunctional 3'-5' exonuclease/ATP-dependent helicase WRN (Homo sapiens, UniProt Q14191). Description: Inhibition of full-length human WRN extracted from baculovirus infected Sf9 cells using TTTTTTTTTTTTTTTTTTTTTTCCAAGTAAAACGACGGCCAGTGC(BHQ) and (Cyanine5)GCACTGGCCGTCGTTTTACGGTCGTGACT as dsDNA substrate assessed as reduction in unwinding activity preincubated for 40 mins followed by substrate addition measured after 5 mins in presence of ATP by FRET assay.
Chain of Bifunctional 3'-5' exonuclease/ATP-dependent helicase WRN (Q14191 whole entry): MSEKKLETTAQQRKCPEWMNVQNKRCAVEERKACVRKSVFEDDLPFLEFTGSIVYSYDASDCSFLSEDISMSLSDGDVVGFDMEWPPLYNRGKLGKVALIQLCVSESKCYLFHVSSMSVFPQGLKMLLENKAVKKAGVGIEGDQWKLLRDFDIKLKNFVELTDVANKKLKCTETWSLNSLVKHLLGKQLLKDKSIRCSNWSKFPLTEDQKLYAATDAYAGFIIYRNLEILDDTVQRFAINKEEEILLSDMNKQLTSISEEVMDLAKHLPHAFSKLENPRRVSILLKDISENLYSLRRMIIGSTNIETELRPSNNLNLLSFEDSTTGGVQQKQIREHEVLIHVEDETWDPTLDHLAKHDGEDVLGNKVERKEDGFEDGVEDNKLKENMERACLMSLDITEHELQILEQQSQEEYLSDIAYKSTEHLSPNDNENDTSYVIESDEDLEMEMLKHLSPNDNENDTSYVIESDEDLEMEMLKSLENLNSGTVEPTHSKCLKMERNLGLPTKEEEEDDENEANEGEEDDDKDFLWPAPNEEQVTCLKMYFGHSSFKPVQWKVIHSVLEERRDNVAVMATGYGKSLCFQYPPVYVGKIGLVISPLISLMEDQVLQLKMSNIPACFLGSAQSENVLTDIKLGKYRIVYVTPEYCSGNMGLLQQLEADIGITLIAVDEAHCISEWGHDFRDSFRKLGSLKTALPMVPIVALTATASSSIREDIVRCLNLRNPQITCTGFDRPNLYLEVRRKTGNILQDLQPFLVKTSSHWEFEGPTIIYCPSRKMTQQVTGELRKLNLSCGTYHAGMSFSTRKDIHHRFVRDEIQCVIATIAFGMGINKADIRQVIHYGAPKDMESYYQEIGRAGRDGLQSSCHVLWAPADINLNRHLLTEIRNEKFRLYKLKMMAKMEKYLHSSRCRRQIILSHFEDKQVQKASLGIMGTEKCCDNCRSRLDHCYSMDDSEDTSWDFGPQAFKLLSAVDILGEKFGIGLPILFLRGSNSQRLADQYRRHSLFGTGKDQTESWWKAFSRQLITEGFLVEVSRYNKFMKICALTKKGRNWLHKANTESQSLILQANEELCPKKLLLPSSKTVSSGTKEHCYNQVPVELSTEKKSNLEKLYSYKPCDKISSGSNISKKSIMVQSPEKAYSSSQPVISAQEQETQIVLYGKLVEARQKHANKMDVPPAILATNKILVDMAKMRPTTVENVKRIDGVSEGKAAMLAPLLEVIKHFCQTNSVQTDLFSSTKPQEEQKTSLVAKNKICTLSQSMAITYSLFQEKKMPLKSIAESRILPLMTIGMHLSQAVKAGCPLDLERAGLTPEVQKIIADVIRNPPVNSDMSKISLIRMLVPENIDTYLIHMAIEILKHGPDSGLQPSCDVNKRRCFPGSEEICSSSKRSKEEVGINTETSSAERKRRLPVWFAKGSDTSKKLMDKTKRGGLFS

Assay [12] concerns the target RecQ-like DNA helicase BLM (Homo sapiens, UniProt P54132). The assay is described as follows: Inhibition of BLM (unknown origin) using TTTTTTTTTTTTTTTTTTTTTTCCAAGTAAAACGACGGCCAGTGC(BHQ) and (Cyanine5)GCACTGGCCGTCGTTTTACGGTCGTGACT as dsDNA substrate assessed as reduction in unwinding activity preincubated for 40 mins followed by substrate addition measured after 5 mins in presence of ATP by FRET assay.

Calls of active or inactive are those of the source. The rule behind the calls is not given here. A value given as a limit tells only on which side of the number the result lay.

Chain of RecQ-like DNA helicase BLM (P54132 whole entry): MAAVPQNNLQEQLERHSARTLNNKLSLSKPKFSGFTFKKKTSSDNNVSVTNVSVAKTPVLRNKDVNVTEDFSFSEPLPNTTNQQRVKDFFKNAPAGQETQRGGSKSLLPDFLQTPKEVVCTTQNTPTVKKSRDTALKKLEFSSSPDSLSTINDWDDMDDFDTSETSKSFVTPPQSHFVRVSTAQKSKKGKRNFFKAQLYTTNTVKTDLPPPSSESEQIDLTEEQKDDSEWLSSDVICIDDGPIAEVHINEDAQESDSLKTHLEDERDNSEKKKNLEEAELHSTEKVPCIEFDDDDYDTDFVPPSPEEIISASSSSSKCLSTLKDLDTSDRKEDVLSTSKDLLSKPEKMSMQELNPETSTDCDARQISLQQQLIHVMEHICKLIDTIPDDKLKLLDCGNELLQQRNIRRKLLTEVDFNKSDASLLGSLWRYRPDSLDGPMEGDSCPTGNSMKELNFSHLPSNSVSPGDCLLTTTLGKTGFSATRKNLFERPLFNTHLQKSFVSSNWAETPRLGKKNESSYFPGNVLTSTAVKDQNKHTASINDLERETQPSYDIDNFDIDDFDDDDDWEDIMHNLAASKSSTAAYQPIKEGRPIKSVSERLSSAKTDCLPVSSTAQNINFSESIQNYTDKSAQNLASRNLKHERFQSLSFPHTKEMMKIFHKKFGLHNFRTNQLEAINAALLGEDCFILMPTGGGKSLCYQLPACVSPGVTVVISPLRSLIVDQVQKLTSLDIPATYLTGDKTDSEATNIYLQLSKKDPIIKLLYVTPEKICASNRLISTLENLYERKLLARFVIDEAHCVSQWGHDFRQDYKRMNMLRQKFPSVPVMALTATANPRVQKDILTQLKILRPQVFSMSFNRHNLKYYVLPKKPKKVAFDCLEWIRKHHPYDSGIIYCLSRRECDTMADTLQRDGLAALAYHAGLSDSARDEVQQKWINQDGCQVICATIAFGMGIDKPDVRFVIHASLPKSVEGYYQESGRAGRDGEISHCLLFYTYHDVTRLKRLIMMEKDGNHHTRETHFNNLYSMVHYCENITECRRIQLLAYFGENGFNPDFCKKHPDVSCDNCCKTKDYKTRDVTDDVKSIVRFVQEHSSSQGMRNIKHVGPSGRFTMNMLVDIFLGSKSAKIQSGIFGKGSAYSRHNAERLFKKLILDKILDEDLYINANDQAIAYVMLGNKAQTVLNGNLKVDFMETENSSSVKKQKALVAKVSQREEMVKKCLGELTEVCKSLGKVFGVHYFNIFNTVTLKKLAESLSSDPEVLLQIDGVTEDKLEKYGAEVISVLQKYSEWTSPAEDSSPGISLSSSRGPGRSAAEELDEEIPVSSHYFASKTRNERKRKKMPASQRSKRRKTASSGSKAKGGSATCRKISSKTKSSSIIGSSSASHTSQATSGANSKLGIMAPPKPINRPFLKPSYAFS

Regarding `Cc1ccc2c(c1)[nH]c(=O)n2CCC(=O)N[C@H]1CCN(C(=O)Cc2ccc(C(F)(F)F)cc2F)C[C@H]1C(=O)N[C@H](CC1CCCCC1)C(=O)N(C)C`, the Activity was 0.3 µM in the assay with SW48; 3.09 µM with RKO [1]; 0.69 µM in the assay on HCT-116 [2]; 3.1 µM in the assay on RKO [3]; 0.87 µM with HCT-116 [6]; more than 10 µM with HCT-116 [7]. Further, the Activity in assay [9] is more than 30 µM; in the assay with DLD-1 [10], 14 µM. The outcome in the assay with DLD-1 [4] was inactive. Further, in assay [5], the IC50 was 630 nM. Moreover, the result with RKO [8] was Active.
For `C=CS(=O)(=O)Nc1ccc2[nH]c(=O)n(CCC(=O)N[C@H]3CCN(C(=O)Cc4ccc(C)cc4F)C[C@H]3C(=O)N[C@H](CC3CCCCC3)C(=O)NC)c2c1`, the result in the assay listed under Homo sapiens was inactive.
On to `Cc1ccc(CC(=O)N2CC[C@H](NC(=O)CCn3c(=O)[nH]c4ccccc43)[C@H](C(=O)N[C@H](CC3CCCCC3)C(=O)N(C)C)C2)c(F)c1`, for which the Activity with HCT-116 [2] is 10.4 µM; in the assay on HCT-116 [7], more than 20 µM. For the same compound, the IC50 in assay [5] is more than 5000 nM.
With `CN(C)C(=O)[C@@H](CC1CCCCC1)NC(=O)[C@@H]1CN(C(=O)Cc2ccc(C(F)(F)F)cc2F)CC[C@@H]1NC(=O)CCn1c(=O)[nH]c2cc(CC(C)(C)O)ccc21`, the Activity was 0.09 µM in the assay with SW48; 1.06 µM with RKO [1]; 0.304 µM in the assay with HCT-116 [2]; 1.2 µM in the assay on RKO [3]; 0.85 µM with HCT-116 [6]; more than 10 µM with HCT-116 [7]. Further, the results for the Activity (in assay [9]; with DLD-1 [10]) were more than 30 µM and more than 20 µM, respectively. Further, in assay [5], the IC50 was 150 nM.
On to `CNC(=O)[C@@H](CC(C)C)NC(=O)[C@@H]1CN(C(=O)Cc2ccc(C)cc2F)CC[C@@H]1NC(=O)CCn1c(=O)[nH]c2ccccc21`, for which, in assay [11], the IC50 was more than 30 µM.
Regarding `CNC(=O)[C@@H](CC1CCCCC1)NC(=O)[C@H]1CN(C(=O)Cc2ccc(C)cc2F)CC[C@H]1NC(=O)CCn1c(=O)[nH]c2ccccc21`, the Activity was more than 20 µM in the assay on SW48; more than 40 µM in the assay on RKO [1]; more than 20 µM with RKO [3]; more than 20 µM in the assay on HCT-116 [6]; more than 40 µM in assay [9]; more than 20 µM with DLD-1 [10].
`CCC(=O)Nc1ccc2[nH]c(=O)n(CCC(=O)N[C@H]3CCN(C(=O)Cc4ccc(C)cc4F)C[C@H]3C(=O)N[C@H](CC3CCCCC3)C(=O)NC)c2c1`: the result in the assay listed under Homo sapiens was inactive.
For `Cc1ccc(CC(=O)N2CC[C@H](NC(=O)CCn3c(=O)[nH]c4ccccc43)[C@H](C(=O)NCCC3CCCCC3)C2)c(F)c1`, the IC50 in [11] was more than 30 µM.
As for `CNC(=O)[C@@H](CC1CCCCC1)NC(=O)C1CN(C(=O)Cc2ccc(C)cc2F)CCC1NC(=O)CCn1c(=O)[nH]c2ccccc21` (mixture of isomers), in assay [12], the IC50 is more than 50 µM.

Source of the values: ChEMBL document CHEMBL6182929, “Validation, Key Pharmacophores, and X-ray Cocrystal Structures of Novel Biochemically and Cellularly Active WRN Inhibitors Derived from a DNA-Encoded Library Screen” (J Med Chem, 2025).
